PubChem BioAssay (NCI)
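These data come from cells grown in 96-well plates and exposed to compound for 48 hours at five concentrations. At the GI50, growth is halved. TGI: total growth inhibition.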

Experiments:
Assay in all cases: NCI anticancer screen, dose series, 48 h
ACHN renal = system: ACHN renal
HCC-2998 colon = system: HCC-2998 colon
HS 578T breast = system: HS 578T breast
IGROV1 ovarian = system: IGROV1 ovarian
K-562 leukemia = system: K-562 leukemia
M14 melanoma = system: M14 melanoma
NCI-H226 lung = system: NCI-H226 lung
NCI/ADR-RES ovarian = system: NCI/ADR-RES ovarian
PC-3 prostate = system: PC-3 prostate
RXF 393 renal = system: RXF 393 renal
SF-539 CNS = system: SF-539 CNS
SK-MEL-28 melanoma = system: SK-MEL-28 melanoma

| Structure (SMILES) | TGI (ACHN renal) [µM] | TGI (HCC-2998 colon) [µM] | TGI (HS 578T breast) [µM] | TGI (IGROV1 ovarian) [µM] | TGI (K-562 leukemia) [µM] | TGI (M14 melanoma) [µM] | TGI (NCI-H226 lung) [µM] | TGI (NCI/ADR-RES ovarian) [µM] | TGI (PC-3 prostate) [µM] | TGI (RXF 393 renal) [µM] | TGI (SF-539 CNS) [µM] | TGI (SK-MEL-28 melanoma) [µM] | GI50 (HCC-2998 colon) [µM] | GI50 (K-562 leukemia) [µM] |
| --- | --- | --- | --- | --- | --- | --- | --- | --- | --- | --- | --- | --- | --- | --- |
| O=C(O)c1ccccc1C(=O)OCC1CCCN2CCCCC12 (stereo not given) | > 100 | > 100 | > 100 | > 100 | > 100 | > 100 | > 100 | > 100 | > 100 | > 100 | > 100 | > 100 | – | – |
| CCOC(=O)C1C(C(C)C)C2(C#N)C(=N)OC1(C)C2(C#N)C#N (stereo not given) | > 100 | > 100 | > 100 | > 100 | > 100 | > 100 | > 100 | > 100 | > 100 | > 100 | > 100 | > 100 | – | – |
| CCCN(CCC)C(=S)N/N=C/c1cccc(C)n1 | 0.821 | – | > 100 | 1.56 | 15 | 1.01 | 0.837 | 1.07 | 62.9 | 0.637 | 0.545 | 91.3 | – | – |
| CC(=O)NNc1nc(C)c(C(/C=C/c2ccccc2O)=N/NC(=O)c2ccncc2)s1 | > 100 | > 100 | > 100 | > 100 | – | > 100 | > 100 | > 100 | > 100 | > 100 | > 100 | > 100 | – | – |
| CC1=C(C#N)C(=O)N(/N=C/c2ccc(Cl)cc2)C(=O)/C1=c1\o/c(=C2/C(=O)N(/N=C/c3ccc(Cl)cc3)C(=O)C(C#N)=C2C)c2nccnc12 | > 100 | > 100 | > 100 | > 100 | > 100 | > 100 | > 100 | > 100 | > 100 | > 100 | > 100 | > 100 | – | – |
| Cc1ccc(S(=O)(=O)Oc2coc(CO)cc2=O)cc1 | 38.2 | 27 | > 72.7 | 34.5 | > 100 | 25.9 | > 100 | > 69.5 | 38.2 | 30 | 87.8 | 36.6 | – | – |
| C=C1[C@H](OCC(C)C)[C@@H](OCC(C)C)[C@@H](O)C(C)(C)/C=C/[C@H](C)C(=O)[C@@]2(O)C[C@H](C)[C@H](O)[C@@H]2[C@H]1OCC(C)C | > 7.5 | > 7.5 | > 7.5 | – | > 7.5 | > 7.5 | – | > 7.5 | > 7.5 | > 7.5 | > 7.5 | – | – | – |
| Clc1cccc(Cl)c1C1SCc2nc3cc4ccccc4cc3n21 (stereo not given) | > 100 | > 100 | > 100 | > 100 | > 100 | > 100 | > 100 | > 100 | > 100 | > 100 | – | > 100 | – | – |
| O=S(=O)([N-]c1nc2ccccc2nc1-[n+]1ccccc1)c1ccccc1 | > 100 | > 100 | > 100 | > 100 | > 100 | > 100 | > 100 | > 100 | > 100 | > 100 | > 100 | – | – | – |
| COc1c(C(=O)O)cccc1-c1cccc(C(=O)NCCN(CCNC(=O)c2cccc(-c3cccc(C(=O)O)c3OC)c2OC)CCNC(=O)c2cccc(-c3cccc(C(=O)O)c3OC)c2OC)c1OC | > 100 | 79 | 81.1 | > 100 | > 100 | – | > 100 | > 100 | > 100 | > 100 | > 100 | > 100 | – | – |
| C/C(=C\c1csc(C)n1)[C@@H]1C[C@@H]2O[C@]2(C)CCC[C@H](C)[C@H](O)[C@@H](C)C(=O)C(C)(C)[C@@H](O)CC(=O)O1 (tested in a mixture with another compound) | > 1 | – | > 1 | > 1 | > 1 | > 1 | > 1 | 0.13 | > 1 | 0.0211 | 0.0348 | > 1 | 0.00305 | 0.0262 |
| Cc1cc2c(cc1Cl)SC(NNC(=O)c1ccncc1)=NS2(=O)=O | > 10 | > 10 | > 10 | > 10 | > 10 | > 10 | > 10 | > 10 | > 10 | > 10 | > 10 | > 10 | – | – |
| COc1ccc(OC)c2c(=O)cc(-c3ccccc3)[nH]c12 | > 100 | > 100 | > 100 | > 100 | > 100 | > 100 | > 100 | > 100 | > 100 | > 100 | – | > 100 | – | – |
| CCC/C(Cl)=N\OC(=O)Nc1ccc(Br)cc1 | 20.3 | 32.9 | 66.6 | 32.8 | 4.15 | 25.2 | 44 | 40.5 | 28.4 | 31 | 32.9 | 32.5 | – | – |
| Cc1cc(Cl)ccc1NC(=O)/C(CC(=O)CC(c1ccccc1)c1c(O)c2ccccc2oc1=O)=N\O (stereo not given) | > 100 | > 100 | > 100 | > 100 | – | > 100 | > 100 | > 100 | > 100 | > 100 | > 100 | > 100 | – | – |
| CN(C)Cc1cc(C(=O)/C=C/c2c(Cl)cccc2Cl)cc(CN(C)C)c1O | 12.4 | 34.7 | 38.7 | 21.8 | 13.4 | 18.9 | 32.4 | 41 | 19 | 18.6 | 34.4 | 20.9 | – | – |
| CC1=C/C(=N\N(C)C)C(C(O)(C(F)(F)F)C(F)(F)F)C(C)(C)C1 (stereo not given) | > 100 | > 100 | > 100 | > 100 | > 100 | > 100 | > 100 | > 100 | > 100 | > 100 | > 100 | > 100 | – | – |
